The source of these data is patent US20220054532A1, “VETERINARY COMPOSITIONS AND METHODS OF USE THEREFOR” (priority 2019, published 2022).

Assay type in all cases: in vivo
In data set [1] the test system is dogs suffering from cognitive dysfunction syndrome. The data set can be described thus: Example 2: cognitive decline, Cognitive Dysfunction Screening Checklist. The note with it: for Average Final Score: day 60, BID. The source says:
(§1) This example examines the ability of embodiments of the invention versus Anipryl® to treat cognitive decline.
The patient group is twenty dogs suffering from cognitive dysfunction syndrome, as determined by the Cognitive Dysfunction Screening Checklist. See G. Landsberg et al., 2003 HANDBOOK OF BEHAVIOR PROBLEMS OF THE DOG AND CAT (Elsevier Science Limited) (2003). The twenty dogs are broken into five groups of four dogs. The first group receives Anipryl® as the sole active agent; the second group receives a composition comprising HMW HA as the sole active agent; the third group receives a composition comprising CBD as the sole active agent; the fourth group receives a composition comprising HMW HA and CBD as the active agents; and the fifth group receives a composition comprising HMW HA, CBD, nicotinamide adenine dinucleotide (“NAD”), and phosphatidylserine as the active agents.
(§2) Each composition is administered for a period of sixty (60) days, twice per day (“BID”). The owner completes the Checklist on days 0 (“Initial Score”), 15, 30, 45, and 60 (“Final Score”) of treatment.
Each group is evaluated and Checklist scores averaged. The following scores are observed and the results depicted in FIG. 2: […]

Data set [2] has the same test system. The data set can be described thus: Example 10: cognitive decline, Cognitive Dysfunction Screening Checklist (CBD Complex). The note with it: for Average Final Score: day 60, BID.
Source text: as §1
The patient group is twenty dogs suffering from cognitive dysfunction syndrome, as determined by the Cognitive Dysfunction Screening Checklist. See G. Landsberg et al., 2003 HANDBOOK OF BEHAVIOR PROBLEMS OF THE DOG AND CAT (Elsevier Science Limited) (2003). The twenty dogs are broken into five groups of four dogs. The first group receives Anipryl® as the sole active agent; the second group receives a composition comprising HMW HA as the sole active agent; the third group receives a composition comprising CBD as the sole active agent; the fourth group receives a composition comprising HMW HA and CBD Complex as the active agents; and the fifth group receives a composition comprising HMW HA, CBD Complex, nicotinamide adenine dinucleotide (“NAD”), and phosphatidylserine as the active agents.
as §2
Each group is evaluated and Checklist scores averaged. The following scores are observed and the results depicted in FIG. 10: […]

The subject of data set [3] is dogs suffering from heart failure. The data set can be described thus: Example 7: heart failure in dogs. The note with it: heart failure scale 1 (few to no clinical signs) to 10 (severe). The source says:
This example examines the ability of embodiments of the invention versus enalapril to treat heart failure.
The patient group is twenty-four dogs suffering from heart failure.
The patient group is broken into six groups of four dogs. The first group receives enalapril as the sole active agent; the second group receives a composition comprising enalapril and Lasix®; the third group receives a composition comprising HMW HA as the sole active agent; the fourth group receives a composition comprising CBD as the sole active agent; the fifth group receives a composition comprising HMW HA and CBD as the active agents; and the sixth group receives a composition comprising HMW HA, CBD, liposomal CoQ10, hawthorn berry, and ginko biloba as the active agents.
Each composition is administered for a period of ninety (90) days, BID. Each animal is evaluated on days 0 (“Initial Score”), 30, 60, and 90 (“Final Score”) of treatment. The results are averaged and characterized on a scale of 1 (few to no clinical signs of heart failure) to 10 (severe heart failure).
The following canine scores are observed and the results depicted in FIG. 7: […]

For data set [4], the system named is cats suffering from GI-specific inflammation. The data set can be described thus: Example 11: GI-specific inflammation, owner-rated symptom reduction. The note with it: species not given, symptom reduction score 0 to 4. The text has this:
(§3) This example examines the ability of embodiments of the invention versus Pepcid® to treat unwanted GI-specific inflammation characterized by gastritis, reflux, vomiting, diarrhea, and inappetence.
(§4) The first patient group is twenty dogs suffering from GI-specific inflammation. The second patient group is twenty cats suffering from GI-specific inflammation. Each patient group is broken into five groups of four animals. The first groups receive Pepcid® as the sole active agent; the second groups receive a composition comprising HMW HA as the sole active agent; the third groups receive a composition comprising CBD as the sole active agent; the fourth groups receive a composition comprising HMW HA and CBD Complex as the active agents; and the fifth groups receive a composition comprising HMW HA, CBD Complex, and glutathione as the active agents.
(§5) Each composition is administered for a period of twenty-eight (28) days, BID. The owner observes potential reduction of symptoms at the end of treatment and rates the reduction as no reduction (score of 0), mild reduction (score of 1), moderate reduction (score of 2), significant reduction (score of 3), or resolution of symptoms (score of 4).

The test system of data set [5] is dogs suffering from GI-specific inflammation. The data set can be described thus: Example 3: GI-specific inflammation, owner-rated symptom reduction (canine). To be noted: symptom reduction score 0 (no reduction) to 4 (resolution of symptoms).
Source text: as §3
as §4, with “CBD” for “CBD Complex”, “CBD,” for “CBD Complex,”
as §5
The following canine scores are observed and the results depicted in FIG. 3a: […]

Data set [6] has as its system cats suffering from GI-specific inflammation. The experiment in a line: Example 3: GI-specific inflammation, owner-rated symptom reduction (feline). To be noted: symptom reduction score 0 (no reduction) to 4 (resolution of symptoms).
Source text: as §3
as §4, with “CBD” for “CBD Complex”, “CBD,” for “CBD Complex,”
as §5
The following feline scores are observed and the results depicted in FIG. 3b: […]

The subject of data set [7] is dogs suffering from GI-specific inflammation. The data set can be described thus: Example 11: GI-specific inflammation, owner-rated symptom reduction (canine, CBD Complex). To be noted: canine (FIG. 11a), symptom reduction score 0 (no reduction) to 4 (resolution of symptoms).
Source text: as §3, §4, §5

Data set [8] deals with dogs with a history of severe, chronic skin issues, atopy, pruritis, yeast overgrowth, and/or infection. The data set can be described thus: Example 16: skin conditions (itch score) and side effects in dogs (CBD Complex). The note with it: dogs with skin conditions; 60 days BID. The source says: (§6) This example examines the ability of embodiments of the invention versus prednisone to treat skin conditions.
(§7) The patient group is twenty-four dogs with a history of severe, chronic skin issues, atopy, pruritis, yeast overgrowth, and/or infection, as diagnosed by their referring veterinarian. The patient group is broken into six groups of four animals. The first group receives prednisone as the sole active agent; the second group receives a composition comprising prednisone and HMW HA as the active agents; the third group receives a composition comprising HMW HA as the sole active agent; the fourth group receives a composition comprising CBD as the sole active agent; the fifth group receives a composition comprising HMW HA and CBD Complex as the active agents; and the sixth group receives a composition comprising HMW HA, CBD Complex, quercetin, and nettles as the active agents.
(§8) Each composition is administered for a period of sixty (60) days, BID. Each dog is evaluated on days 0 (“Initial Score”), 20, 40, and 60 (“Final Score”) of treatment. The results are averaged and characterized on a scale of 0 (no itching—normal dog), 2 (very mild itching—only occasional episodes), 4 (mild itching), 6 (moderate itching—regular episodes), 8 (severe itching—prolonged episodes), to 10 (extremely severe itching—almost continuous).

Data set [9] has the same test system. The experiment in a line: Example 8: skin conditions (itch score) and side effects in dogs. Also noted: Average Side Effect Score: scale not given here.
Source text: as §6
as §7, with “CBD” for “CBD Complex”, “CBD,” for “CBD Complex,”
as §8
The following scores are observed and the results depicted in FIG. 8: […]

Data set [10] deals with dogs suffering from osteoarthritis. The data set can be described thus: Example 9: pain relief and side effects in canine osteoarthritis (CBD Complex). To be noted: dogs with osteoarthritis, 4 weeks of administration, group average. The source says: (§9) This example examines the ability of various compositions to minimize pain and examines the level of adverse side effects of each composition.
(§10) At the outset of the study, participants receive a full physical examination, including weight measurement, thigh circumference, and CBC/blood chemistries. Because osteoarthritis is not only a disease of pain, but one characterized by behavioral, appetite, anxiety/aggression, family socialization, and sleep aberrations, the pet's owners are familiarized with the pain scale (canine orthopedic index) and additional behavioral assessment log.
(§11) The patient group is twenty-four dogs suffering from osteoarthritis, broken into eight groups of three dogs. The first group receives a control composition with no active agent; the second group receives a composition comprising HA as the sole active agent; the third group receives a composition comprising HMW HA as the sole active agent; the fourth group receives a composition comprising CBD as the sole active agent; the fifth group receives a composition comprising HA and CBD as the active agents; the sixth group receives a composition comprising HMW HA and CBD Complex as the active agents; the seventh group receives a composition comprising Rimadyl as the active agent; and the eighth group receives a composition comprising Meloxicam as the active agent.
(§12) Each composition is administered for a period of four (4) weeks. The owner completes the electronic log questionnaire each week. At the end of the 4-week study, participants have another full physical examination, including weight measurement, thigh circumference, and CBC/blood chemistries, with an exit interview of the owners to gain final impressions.
Each group is evaluated for pain scores and the scores averaged. The following scores are observed and the results depicted in FIG. 9: […]

Data set [11] has the same test system. The data set can be described thus: Example 1: pain relief and side effects in canine osteoarthritis. The note with it: dogs with osteoarthritis, 4 weeks of administration, group average.
Source text: as §9, §10
as §11, with “CBD” for “CBD Complex”
as §12
Each group is evaluated for pain scores and the scores averaged. The following scores are observed and the results depicted in FIG. 1: […]

Regarding `C#CCN(C)[C@H](C)Cc1ccccc1` [Anipryl ®, Selegiline], the “Average Initial Score” value in data set [1] (day 0 (before treatment)) and in data set [2] (day 0 (before treatment)) was 3 each time. Also, the “Average Final Score” value is on record as 2 in data set [1], “as effective as HMW HA alone” in [1] (listed as Anipryl®), 2 in data set [2] and “as effective as HMW HA alone” in data set [2] (listed as Anipryl®).
Turning to `CCOC(=O)[C@H](CCc1ccccc1)N[C@@H](C)C(=O)N1CCC[C@H]1C(=O)O` [Enalapril], in [3] (day 0), the “Initial Score” value is 8. For the same molecule, the “Final Score” value in [3] (day 90, BID) is on record as 5.
As to `NC(N)=Nc1nc(CSCCC(N)=NS(N)(=O)=O)cs1` [Pepcid ®, Famotidine], the “Final Score” value in data set [4] (after 28 days BID), in [5] (after 28 days BID), in data set [6] (after 28 days BID) and in [7] (after 28 days BID) was 1 each time. In addition, the “Initial Score” value in data set [4] (initial), in data set [5] (initial), in data set [6] (initial) and in data set [7] (initial) was 0 each time.
`C[C@]12C=CC(=O)C=C1CC[C@@H]1[C@@H]2C(=O)C[C@@]2(C)[C@H]1CC[C@]2(O)C(=O)CO` [Prednisone]: the “Average Side Effect Score” value in [8] is given as 17; in data set [9] (dogs with skin conditions, 60 days BID), 17. Moreover, the “Initial Itch Score” value in [9] (itch scale 0 (no itching) to 10 (extremely severe), day 0) is given as 9. The “Final Itch Score” value in data set [9] (itch scale 0 (no itching) to 10 (extremely severe), day 60, BID) worked out at 6.
As for hyaluronic acid [HA Alone], the “Average Pain Score” value in data set [10] is recorded as 18; in data set [10] (listed as HA alone) it was “only slightly reduce pain”; in data set [11], 18; in data set [11] (listed as HA alone), “only slightly reduce pain”. Also, the “Average Side Effect Score” value in data set [10] is given as 6; in data set [10] (listed as HA alone), “low degree of adverse side effects”; in data set [11] it was 6; in [11] (listed as HA alone) it was “low degree of adverse side effects”.
